Activity calls are given as the source filed them.
Legend:
[1] = target: G2/mitotic-specific cyclin-B1 (Homo sapiens, UniProt P14635); test: Counterscreen assay for inhibitors of Wee1 degradation: dose response cell-based assay to identify inhibitors of cyclin B degradation. [Related pubchem assays: 1410, 1321 ]; format: functional
[2] = target: Wee1-like protein kinase (Homo sapiens, UniProt P30291); test: Dose Response Cell-based Assay for Inhibitors of Wee1 Degradation. [Related pubchem assays: 1410, 1321 ]; format: functional
Wee1-like protein kinase, sequence (P30291 whole entry): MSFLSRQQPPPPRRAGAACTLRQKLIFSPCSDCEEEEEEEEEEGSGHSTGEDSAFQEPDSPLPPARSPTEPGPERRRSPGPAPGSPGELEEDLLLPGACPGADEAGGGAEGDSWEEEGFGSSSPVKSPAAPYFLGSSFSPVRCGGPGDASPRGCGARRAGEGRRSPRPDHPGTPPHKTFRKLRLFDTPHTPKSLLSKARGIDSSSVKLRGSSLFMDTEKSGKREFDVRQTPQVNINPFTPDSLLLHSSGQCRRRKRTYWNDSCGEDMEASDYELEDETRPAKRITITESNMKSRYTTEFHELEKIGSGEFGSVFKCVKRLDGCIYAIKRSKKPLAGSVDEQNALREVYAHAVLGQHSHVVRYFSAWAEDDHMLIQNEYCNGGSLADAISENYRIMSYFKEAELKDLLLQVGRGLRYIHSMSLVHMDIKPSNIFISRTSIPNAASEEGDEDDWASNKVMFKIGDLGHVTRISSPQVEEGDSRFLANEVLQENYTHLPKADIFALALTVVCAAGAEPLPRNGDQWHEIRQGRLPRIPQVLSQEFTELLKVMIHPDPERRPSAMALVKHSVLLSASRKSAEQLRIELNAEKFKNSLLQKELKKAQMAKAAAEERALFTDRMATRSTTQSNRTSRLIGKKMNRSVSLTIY

[3] = target: T1, Estrogen receptor (Homo sapiens, UniProt P03372); test: ERα–SRC-3 coactivator interaction inhibitors, confirmation, orthogonal assay, biochemical, ELISA, streptavidin-HRP readout (AID 1079)
T1 sequence (P03372 whole entry): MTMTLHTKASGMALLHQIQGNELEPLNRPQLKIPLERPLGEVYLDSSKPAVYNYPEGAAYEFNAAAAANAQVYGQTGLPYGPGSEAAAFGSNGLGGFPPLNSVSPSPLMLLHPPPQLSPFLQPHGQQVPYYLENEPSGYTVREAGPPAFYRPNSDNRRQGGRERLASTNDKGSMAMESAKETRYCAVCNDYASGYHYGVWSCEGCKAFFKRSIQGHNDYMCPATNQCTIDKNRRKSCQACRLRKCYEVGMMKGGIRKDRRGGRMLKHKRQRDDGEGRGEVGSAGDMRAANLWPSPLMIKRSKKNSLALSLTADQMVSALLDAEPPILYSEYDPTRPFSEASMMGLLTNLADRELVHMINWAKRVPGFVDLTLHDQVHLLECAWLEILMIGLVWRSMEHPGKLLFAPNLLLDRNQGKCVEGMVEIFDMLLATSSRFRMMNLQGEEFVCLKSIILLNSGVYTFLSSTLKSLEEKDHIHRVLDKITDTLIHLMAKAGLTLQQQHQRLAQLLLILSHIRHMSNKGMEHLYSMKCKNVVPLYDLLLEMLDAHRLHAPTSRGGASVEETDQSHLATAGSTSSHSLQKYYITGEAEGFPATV

[4] = target: Mothers against decapentaplegic homolog 3 (Homo sapiens, UniProt P84022); test: Smad3 binding inhibitors, lysate ELISA, dose response, cell lysate, secondary confirmation, chemiluminescent ELISA, HEK293 lysate (AID 1058); format: functional
Mothers against decapentaplegic homolog 3, sequence (P84022 whole entry): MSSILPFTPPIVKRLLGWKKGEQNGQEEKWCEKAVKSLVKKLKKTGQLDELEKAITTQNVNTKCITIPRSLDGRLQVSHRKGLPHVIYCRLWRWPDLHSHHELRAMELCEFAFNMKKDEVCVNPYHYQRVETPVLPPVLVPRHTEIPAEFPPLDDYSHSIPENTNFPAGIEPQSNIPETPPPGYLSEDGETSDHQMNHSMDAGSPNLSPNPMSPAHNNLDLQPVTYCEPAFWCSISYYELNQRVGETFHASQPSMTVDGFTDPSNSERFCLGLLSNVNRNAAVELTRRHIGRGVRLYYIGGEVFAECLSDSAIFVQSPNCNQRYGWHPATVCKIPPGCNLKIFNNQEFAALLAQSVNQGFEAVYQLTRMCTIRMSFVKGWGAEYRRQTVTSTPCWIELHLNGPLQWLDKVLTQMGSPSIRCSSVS

[5] = target: Sphingosine 1-phosphate receptor 4 (Homo sapiens, UniProt O95977); test: Fluorescence dose response cell-based high throughput screening assay for antagonists of the Sphingosine 1-Phosphate Receptor 4 (S1P4). [Related pubchem assays: 1524 (Confirmation in triplicates.), 1510 (Primary screen.)]; format: functional
Sphingosine 1-phosphate receptor 4, sequence (O95977 whole entry): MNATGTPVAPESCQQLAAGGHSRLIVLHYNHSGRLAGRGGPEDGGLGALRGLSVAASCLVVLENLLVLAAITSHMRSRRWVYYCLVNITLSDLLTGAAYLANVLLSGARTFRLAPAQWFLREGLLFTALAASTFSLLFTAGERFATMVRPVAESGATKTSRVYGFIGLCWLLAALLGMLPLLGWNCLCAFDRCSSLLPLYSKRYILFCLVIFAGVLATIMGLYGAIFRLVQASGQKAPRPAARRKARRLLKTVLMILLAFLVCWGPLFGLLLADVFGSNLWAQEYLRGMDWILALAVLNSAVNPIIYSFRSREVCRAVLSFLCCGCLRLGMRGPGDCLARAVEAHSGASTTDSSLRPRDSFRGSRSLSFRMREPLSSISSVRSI

[6] = HepG2 cell cytotoxicity, dose response, cytotoxicity control for Shn3 inhibitor project, CellTiter-Glo, cherry-picked (AID 624134); format: functional, cell-based
[7] = target: Sphingosine 1-phosphate receptor 1 (Homo sapiens, UniProt P21453); format: functional;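 note: Tango beta-arrestin reporter U2OS cells stimulated with S1P near its EC80; inhibitor potency meaning antagonism of receptor activation by the natural agonist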
Sphingosine 1-phosphate receptor 1, sequence (P21453 whole entry): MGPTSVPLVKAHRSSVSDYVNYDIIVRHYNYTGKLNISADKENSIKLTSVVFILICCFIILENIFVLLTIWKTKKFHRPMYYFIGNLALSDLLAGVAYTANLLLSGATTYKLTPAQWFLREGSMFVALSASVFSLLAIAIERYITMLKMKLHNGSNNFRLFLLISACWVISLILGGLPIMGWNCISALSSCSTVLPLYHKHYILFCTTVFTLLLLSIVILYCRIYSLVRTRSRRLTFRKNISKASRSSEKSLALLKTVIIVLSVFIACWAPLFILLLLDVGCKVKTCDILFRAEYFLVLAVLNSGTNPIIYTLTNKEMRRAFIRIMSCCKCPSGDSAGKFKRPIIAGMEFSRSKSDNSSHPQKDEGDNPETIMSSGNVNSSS

[8] = inhibitors of firefly luciferase expression or activity, dose response, H4 neuroglioma cells, luminescence (AID 1990); format: functional, cell-based
[9] = target: T2, High affinity choline transporter 1 (Homo sapiens, UniProt Q9GZV3); test: CHT inhibitors, dose response, cell-based, 5-point CRC, membrane potential dye (AID 504840); format: functional
T2 sequence (Q9GZV3 whole entry): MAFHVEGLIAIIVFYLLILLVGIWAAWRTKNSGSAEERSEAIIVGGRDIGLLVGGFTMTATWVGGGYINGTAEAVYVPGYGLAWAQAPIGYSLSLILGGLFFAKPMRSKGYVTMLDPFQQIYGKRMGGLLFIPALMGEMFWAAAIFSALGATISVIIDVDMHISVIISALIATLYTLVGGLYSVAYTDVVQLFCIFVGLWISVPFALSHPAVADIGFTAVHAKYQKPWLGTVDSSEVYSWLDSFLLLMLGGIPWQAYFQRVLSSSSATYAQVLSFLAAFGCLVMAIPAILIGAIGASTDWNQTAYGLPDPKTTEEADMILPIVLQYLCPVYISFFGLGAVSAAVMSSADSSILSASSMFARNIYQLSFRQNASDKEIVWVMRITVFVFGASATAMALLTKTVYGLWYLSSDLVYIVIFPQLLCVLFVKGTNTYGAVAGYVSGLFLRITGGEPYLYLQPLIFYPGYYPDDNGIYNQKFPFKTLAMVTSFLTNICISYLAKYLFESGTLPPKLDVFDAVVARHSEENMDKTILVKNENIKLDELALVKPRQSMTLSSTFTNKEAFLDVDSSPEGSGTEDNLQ

[10] = Luminescence Cell-Based Dose Response HTS to Identify Inhibitors of 5'UTR Stem-Loop Driven Prion Protein mRNA Translation in H4 Neuroglioblastoma Cells. [Related pubchem assays: 1827 (Project Summary), 1813 (Primary HTS)]; format: functional
[11] = system: HT-1080; test: cytotoxicity in HT1080 fibrosarcoma cells, cell-based, fluorescence readout (AID 620); format: functional; details: Homo sapiens
[12] = target: T2, High affinity choline transporter 1; test: CHT inhibitors, dose response, cell-based, 10-point CRC, membrane potential dye (AID 588401); format: functional;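 note: membrane potential dye fluorescence of choline-evoked depolarization via CHT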
[13] = system: CHO; test: cytotoxicity in TLR9-MyD88 CHO cells, dose response, cytotoxicity control for TLR9-MyD88 binding inhibitor project, cell-based, luminescence (AID 588339); format: functional, hamster; details: Cricetulus griseus;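 note: CHO cells stably coexpressing TLR9 and MyD88 fusions from primary screen; compound exposure lasted 48 hours before viability readout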
[14] = target: T3, Heat shock factor protein 1 (Mus musculus, UniProt P38532); test: inhibition of MG132-induced HSE-luciferase signal, confirmation, cell-based, NIH3T3, luminescence, dose retest (AID 2382); format: functional;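 note: NIH3T3 fibroblasts with HSF1-driven luciferase reporter stressed by proteasome inhibitor MG132; luminescence from HSF1-driven luciferase expression after 8 hours of MG132 stress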
T3 sequence (P38532 whole entry): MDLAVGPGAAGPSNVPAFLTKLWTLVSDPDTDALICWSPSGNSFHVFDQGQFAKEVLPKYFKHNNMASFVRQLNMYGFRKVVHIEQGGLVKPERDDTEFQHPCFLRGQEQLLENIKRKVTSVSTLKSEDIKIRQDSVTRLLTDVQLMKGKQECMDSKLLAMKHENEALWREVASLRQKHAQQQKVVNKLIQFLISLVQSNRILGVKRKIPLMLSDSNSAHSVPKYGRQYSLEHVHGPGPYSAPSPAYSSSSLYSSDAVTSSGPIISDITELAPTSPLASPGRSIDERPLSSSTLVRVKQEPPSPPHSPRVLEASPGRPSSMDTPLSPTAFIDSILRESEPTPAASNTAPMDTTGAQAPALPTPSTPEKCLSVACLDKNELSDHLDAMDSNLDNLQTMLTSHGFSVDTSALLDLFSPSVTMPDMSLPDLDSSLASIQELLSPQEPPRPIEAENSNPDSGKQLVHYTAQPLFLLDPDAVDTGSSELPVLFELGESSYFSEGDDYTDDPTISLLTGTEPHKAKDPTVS

[15] = inhibitors of SNCA 5'UTR-driven reporter translation, confirmation, H4 neuroglioma cells, luminescence (AID 1988); format: functional, cell-based
[16] = target: T4, Protein RecA (Mycobacterium tuberculosis, UniProt P9WHJ3); test: Fluorescence Cell-Free Homogeneous Dose Retest to Identify Inhibitors of RecA-Intein Splicing Activity. [Related pubchem assays (depositor defined):AID2097, AID2223, AID489010, AID492950]; format: functional
T4 sequence (P9WHJ3 whole entry): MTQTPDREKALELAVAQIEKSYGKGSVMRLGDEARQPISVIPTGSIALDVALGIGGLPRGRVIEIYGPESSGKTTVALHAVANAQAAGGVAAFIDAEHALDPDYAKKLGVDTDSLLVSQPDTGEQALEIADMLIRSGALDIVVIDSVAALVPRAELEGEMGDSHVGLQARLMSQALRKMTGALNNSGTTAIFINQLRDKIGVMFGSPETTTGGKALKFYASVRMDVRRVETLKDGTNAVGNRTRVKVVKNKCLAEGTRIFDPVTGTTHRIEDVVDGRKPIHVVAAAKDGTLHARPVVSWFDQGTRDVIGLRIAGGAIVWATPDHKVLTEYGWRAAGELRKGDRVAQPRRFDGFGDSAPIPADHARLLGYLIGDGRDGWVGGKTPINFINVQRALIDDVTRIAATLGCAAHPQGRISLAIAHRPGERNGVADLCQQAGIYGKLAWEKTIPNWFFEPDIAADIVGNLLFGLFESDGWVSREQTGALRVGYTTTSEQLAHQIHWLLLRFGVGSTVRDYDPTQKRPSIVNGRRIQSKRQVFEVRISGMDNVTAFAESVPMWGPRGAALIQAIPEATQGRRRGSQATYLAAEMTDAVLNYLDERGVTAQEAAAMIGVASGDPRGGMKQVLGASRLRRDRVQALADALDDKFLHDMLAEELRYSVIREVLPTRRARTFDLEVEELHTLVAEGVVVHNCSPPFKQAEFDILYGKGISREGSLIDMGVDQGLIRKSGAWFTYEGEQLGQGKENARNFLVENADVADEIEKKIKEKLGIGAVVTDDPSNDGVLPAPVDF

[17] = control 3'UTR Renilla luciferase suppression, dose response, counter-screen for Shn3 inhibitor project, cell-based, Clone20-Shn3RL, cherry-picked (AID 624133); format: functional
[18] = target: Luciferin 4-monooxygenase (Photinus pyralis, UniProt P08659); test: Counter Screen for Luciferase-based Assay Positives. [Related pubchem assays: 620, 618, 411 ]
Luciferin 4-monooxygenase, sequence (P08659 whole entry): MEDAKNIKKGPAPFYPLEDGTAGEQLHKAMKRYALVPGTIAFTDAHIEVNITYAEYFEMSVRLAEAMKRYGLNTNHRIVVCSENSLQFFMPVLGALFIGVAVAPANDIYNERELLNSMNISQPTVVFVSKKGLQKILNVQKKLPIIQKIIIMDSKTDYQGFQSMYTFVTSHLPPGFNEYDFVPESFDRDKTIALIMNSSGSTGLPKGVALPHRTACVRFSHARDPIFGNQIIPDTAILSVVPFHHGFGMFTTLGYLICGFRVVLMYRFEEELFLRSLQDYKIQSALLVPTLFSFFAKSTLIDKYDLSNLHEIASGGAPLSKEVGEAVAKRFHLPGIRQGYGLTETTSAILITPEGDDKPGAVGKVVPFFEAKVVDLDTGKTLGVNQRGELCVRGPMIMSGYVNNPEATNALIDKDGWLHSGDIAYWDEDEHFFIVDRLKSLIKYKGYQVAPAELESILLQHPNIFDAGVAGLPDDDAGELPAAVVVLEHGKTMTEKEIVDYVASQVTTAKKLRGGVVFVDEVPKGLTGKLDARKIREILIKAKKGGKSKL

[19] = Shn3 3'UTR reporter inhibitors, dose response, cell-based, Clone20 osteoblasts, firefly luciferase, cherry-picked (AID 624132); format: functional;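 note: firefly luciferase luminescence from reporter carrying the Shn3 3'UTR in osteoblasts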
[20] = microbe, parasite or virus in culture; format: functional; details: Mycobacterium tuberculosis
[21] = HeLa 2N DNA content increase, dose response, cell-based, IC50 (AID 1117349); format: functional
[22] = luciferase reporter signal reduction – luminescence, H4-C neuroglioblastoma cells, dose response (AID 2458); format: functional, cell-based;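 note: H4 neuroglioblastoma cells stably carrying a luciferase reporter gene fusion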
[23] = cells; format: functional, cell-based
[24] = inhibitors of SNCA 5'UTR-driven translation, confirmation, luminescence, H4 neuroglioblastoma cells, dose confirmation (AID 2454); format: functional, cell-based;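 note: H4 neuroglioblastoma cells carrying an alpha-synuclein 5'UTR luciferase reporter; potency for inhibition of the luciferase signal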
[25] = cells; format: functional, cell-based; remark: listed apart in the source
[26] = HeLa 4N DNA content increase, dose response, cell-based, IC50 (AID 1117351); format: functional
[27] = target: Cysteine protease ATG4B (Homo sapiens, UniProt Q9Y4P1); format: functional;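 note: Fluorescence-based dose-response confirmation assay measuring inhibition of ATG4B activity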
Cysteine protease ATG4B, sequence (Q9Y4P1 whole entry): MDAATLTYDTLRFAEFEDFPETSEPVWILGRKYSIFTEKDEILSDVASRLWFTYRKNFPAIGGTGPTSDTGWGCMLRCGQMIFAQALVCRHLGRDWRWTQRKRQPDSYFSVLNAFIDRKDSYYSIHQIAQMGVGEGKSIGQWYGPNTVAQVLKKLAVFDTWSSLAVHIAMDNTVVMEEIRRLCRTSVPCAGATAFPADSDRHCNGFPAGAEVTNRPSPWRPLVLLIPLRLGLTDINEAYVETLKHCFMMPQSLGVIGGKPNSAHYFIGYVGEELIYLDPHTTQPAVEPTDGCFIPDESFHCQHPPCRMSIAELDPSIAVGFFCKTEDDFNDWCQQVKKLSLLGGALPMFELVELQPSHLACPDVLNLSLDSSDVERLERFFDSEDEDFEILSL

[28] = target: Phospholipase A2 (Homo sapiens, UniProt P04054); format: functional;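 note: confirmatory dose-response counterscreen on phospholipase A2, testing hits that came from an ultra-high-throughput screen for ATG4B inhibitors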
Phospholipase A2, sequence (P04054 whole entry): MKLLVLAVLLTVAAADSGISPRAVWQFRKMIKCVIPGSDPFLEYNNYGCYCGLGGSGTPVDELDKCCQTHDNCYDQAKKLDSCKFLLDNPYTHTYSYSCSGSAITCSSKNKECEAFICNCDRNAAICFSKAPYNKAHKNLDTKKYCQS

[29] = A cytotoxicity screen of small molecule inhibitors of the PhoP region in Salmonella typhi identified in the primary screen. [Related pubchem assays: 1850, 1864, 1985 ]; format: functional
[30] = system: Streptococcus sp. 'group A'; test: growth inhibition of control SK(-) GAS strain, dose response, counter-screen for streptokinase expression inhibitor project, luminescence, kanamycin, BacTiterGlo, confirmation (AID 1900); format: functional, organism-based
[31] = target: T5, Streptokinase A (Streptococcus pyogenes serotype M1, UniProt P10520); test: S. pyogenes streptokinase expression inhibitors, potency, dose response, plasminogen activation absorbance, OD405 (AID 1914); format: functional, Streptococcus pyogenes M1 GAS;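 note: secreted streptokinase activity via plasminogen activation per viability signal from cell pellet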
T5 sequence (P10520 whole entry): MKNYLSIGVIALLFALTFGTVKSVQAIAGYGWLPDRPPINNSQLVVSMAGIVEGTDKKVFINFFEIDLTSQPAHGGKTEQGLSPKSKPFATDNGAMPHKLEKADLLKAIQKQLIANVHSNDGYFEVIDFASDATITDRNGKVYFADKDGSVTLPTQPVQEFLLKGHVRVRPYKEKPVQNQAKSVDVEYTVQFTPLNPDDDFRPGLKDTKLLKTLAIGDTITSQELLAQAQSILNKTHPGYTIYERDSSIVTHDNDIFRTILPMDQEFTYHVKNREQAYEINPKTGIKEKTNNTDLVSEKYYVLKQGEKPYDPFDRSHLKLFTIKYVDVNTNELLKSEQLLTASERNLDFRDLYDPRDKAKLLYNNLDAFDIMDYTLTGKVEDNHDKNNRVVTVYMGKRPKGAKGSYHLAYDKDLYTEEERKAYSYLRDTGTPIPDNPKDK

[32] = system: Streptococcus; test: Luminescence Microorganism-Based Dose Response Follow up to Identify Compounds Cytotoxic to Streptococcus. [Related pubchem assays: 1677 (Project Summary), 1915, 1914, 1902 (Retest at Dose), 1900 (Counter Screen), 1662 (Primary HTS)]; format: functional, organism-based
[33] = system: Streptococcus; test: Group A Streptococcus viability loss, dose response, counter-screen for streptokinase expression inhibitor project, luminescence, BacTiterGlo (AID 1915); format: functional, organism-based;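 note: potency for reduction of bacterial viability or growth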

G2/mitotic-specific cyclin-B1, sequence (P14635 whole entry): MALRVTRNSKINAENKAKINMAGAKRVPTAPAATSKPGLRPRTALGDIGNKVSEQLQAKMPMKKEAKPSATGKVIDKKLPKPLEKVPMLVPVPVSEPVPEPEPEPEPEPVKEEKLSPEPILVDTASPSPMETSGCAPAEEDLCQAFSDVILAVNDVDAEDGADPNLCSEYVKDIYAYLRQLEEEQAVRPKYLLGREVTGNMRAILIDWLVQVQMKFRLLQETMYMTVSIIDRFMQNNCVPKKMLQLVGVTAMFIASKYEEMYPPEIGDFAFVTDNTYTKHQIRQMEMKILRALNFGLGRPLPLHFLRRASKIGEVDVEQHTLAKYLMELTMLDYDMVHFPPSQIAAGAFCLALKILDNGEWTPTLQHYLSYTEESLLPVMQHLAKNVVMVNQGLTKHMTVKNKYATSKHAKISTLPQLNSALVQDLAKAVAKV

## Cn1cccc1/C=C1\SC(Nc2ccccc2)=NC1=O
[1]
  EC50: > 5.53 µM (active)
[2]
  EC50: > 49.7 µM (not active)

## O=C(CCCCCn1c(=S)[nH]c2ccccc2c1=O)N1CCC(Nc2ccccc2)CC1
[3]
  IC50: 0.18 µM (not active)

## Oc1ccccc1C(c1cc2c(cc1O)OCO2)N1CCOCC1 (stereo not given)
[4]
  IC50: 6.96 µM (not active)

## CN1/C(=C/C(=O)c2nc(S(C)(=O)=O)ncc2Cl)C(C)(C)c2ccccc21
[5]
  IC50: 1.31 µM (active)
[6]
  AC50: 12.2 µM (active)
[7]
  IC50: 11.9 µM (not active)
[8]
  EC50: > 120 µM (not active)
[9]
  IC50: 4.81 µM (active)
[10]
  EC50: 10.1 µM (active)
[11]
  EC50: 17.8 µM (active)
[12]
  IC50: 3.81 µM (active)
[13]
  IC50: 2.72 µM (active)
[14]
  EC50: 4.37 µM (active)
[15]
  EC50: 9.18 µM (active)
[16]
  EC50: 1.81 µM (active)
[17]
  AC50: 8.57 µM (active)
[18]
  EC50: 1.14 µM (active)
[19]
  AC50: 5.21 µM (active)
[20]
  CC50: 19.5 µM (active)

## COC(=O)Nc1nc2cc(C(=O)c3cccs3)ccc2[nH]1 [NOCODAZOLE]
[21]
  IC50: 0.0174 µM (active)
[22]
  EC50: 0.195 µM (active)
[23]
  IC50: > 67.5 µM (inactive)
[10]
  EC50: < 0.1 µM (active)
[15]
  EC50: < 0.1 µM (active)
[24]
  EC50: 0.183 µM (active)
[25]
  EC50: 0.203 µM (active)
[26]
  IC50: 0.0176 µM (active)

## O=c1c2ccccc2nc(-c2ccoc2)n1CCc1ccccc1
[27]
  IC50: 14.3 µM (active)
[28]
  IC50: 13.9 µM (active)
[29]
  EC50: > 50 µM (active)

## Cc1cc(C(=O)OC(C(=O)Nc2cccc(C(F)(F)F)c2)c2ccccc2)c(C)o1 (stereo not given)
[30]
  EC50: 22.6 µM (active)
[31]
  EC50: 4.11 µM (active)
[32]
  EC50: > 500 µM (not active)
[33]
  EC50: > 150 µM (not active)

Source: ChEMBL document CHEMBL1201862, “PubChem BioAssay data set” (2004)
